# Test results as given in patent US9216964B2, “Hedgehog pathway modulators” (Novartis AG, priority 2008, dated 2015).
# Tested on: hedgehog signaling pathway
# Assay: Gli-Luc Reporter Assay for Hh Pathway Inhibition (TMHh-12 cells, pTA-8×Gli-Luc reporter)
# Type: cell-based, Mouse
# Settings: Mus musculus, TMHh12, Ag1.5 1 nM; read-out: Hedgehog Inhibition IC50 (nM) (Ag1.5 1 nM)
# Method: Compounds of the present invention are assayed to evaluate their capacity to inhibit the hedgehog signaling pathway.
# Gli-Luc Reporter Assay for Hh Pathway Inhibition
# Mouse TM3 cells (obtained from American Type Culture Collection, ATCC, Manassas, Va.) are cultured in DMEM/F12 medium (Gibco/Invitrogen, Carlsbad, Calif.) supplemented with 5% heat inactivated horse serum and 2.5% FBS (Gibco/Invitrogen, Carlsbad, Calif.), 50 unit/mL penicillin and 50 μg/mL of streptomycin (Gibco/Invitrogen, Carlsbad, Calif.) at […] with 5% CO2 in air atmosphere. TM3 cells were transfected with pTA-8×Gli-Luc reporter plasmid. A stably transfected clone termed TMHh-12 was selected. […] To evaluate the IC50s of the antagonists, 8000 TMHh-12 cells were plated into each wells in 384-well plates with 50% DMEM/F12 medium supplemented with 2% FBS. After 12 hours, Hh pathway is activated by adding recombinant mouse Shh protein (expressed in E. coli, 8 μg/mL) or by adding Smo agonists. The testing compounds are added into plates with different concentrations. After 48 hours, the firefly luciferase luciferase activities are assayed with the Bright-Glo™ Luciferase Assay System (Promega, Madison, Wis.). The IC50 is measured when the effect of the compound reduces the luminescence signal by 50%. Toxicity of these compounds are evaluated in TM3 cells using CellTiter Glo assays or by TM3-Luc cell line (a TM3 cell stably transfected with a constitutive luciferase expression vector).
row,SMILES,IC50 [nM]
1,Cc1ccc(Nc2cccc3c2CCN(S(C)(=O)=O)C3)cc1-c1ccc(CO)cc1 [Compound 156],564
2,Cc1ccc(Nc2cccc3c2CCN(S(C)(=O)=O)C3)cc1Oc1ccccc1 [Compound 123],738
3,Cc1cnc(-c2cc(Nc3cccc4c3CCN(S(C)(=O)=O)C4)ccc2C)nc1 [Compound 216],15
4,Cc1cc(C#N)ccc1-c1cc(Nc2cccc3c2CCN(S(C)(=O)=O)C3)ccc1C [Compound 163],47
5,Cc1ccc(Nc2cccc3c2CCN(S(C)(=O)=O)C3)cc1-c1ccc(C(C)(C)C)cc1 [Compound 113],1030
6,Cc1cc2c(cn1)cc(-c1cc(Nc3cccc4c3CCN(S(C)(=O)=O)C4)ccc1C)c(=O)n2C [Compound 116],694
7,Cc1c(Nc2cccc3c2CCN(S(C)(=O)=O)C3)cccc1-c1ccc(C#N)cc1 [Compound 90],490

# Second part, the molecule after the results:
row,IC50 [nM],SMILES
1,1,Cc1ccc(Nc2cccc3c2CCN(S(C)(=O)=O)C3)cc1C(=O)Nc1ccc(C#N)cc1 [Compound 160]
2,0.7,Cc1ccc(Nc2cccc3c2CCN(S(C)(=O)=O)C3)cc1C(=O)Nc1ccc(C(F)(F)F)cc1 [Compound 184]
3,1.8,OCC(CO)N1CCc2c(cccc2Nc2ccc(Cl)c(-c3ncc(-c4ccccc4)[nH]3)c2)C1 [Compound 34]
4,0.73,OC1CCC(N2CCc3c(cccc3Nc3ccc(Cl)c(-c4ncc(-c5ccccc5)[nH]4)c3)C2)CC1 (stereo not shown) [Compound 37]
5,9.8,COc1ccc(-c2cc(Nc3cccc4c3CCN(C3CS(=O)(=O)C3)C4)ccc2C)nn1 [Compound 276]

# Same assay, conditions: Mus musculus, TMHh12, enzymatic and cellular assays for the inhibition of hedgehog signaling pathways; read-out: IC50 Ranges
row,SMILES,IC50 [nM]
1,Cc1ncc(Nc2cccc3c2CCN(S(C)(=O)=O)C3)cc1-c1ccc(F)cn1 [Compound 202],10 to 100
2,Cc1ccc(Nc2cccc3c2CCN(S(C)(=O)=O)C3)cc1-c1ccc(CO)cc1 [Compound 156],100 to 1000
3,CCOc1cnc(-c2nc(Nc3cccc4c3CCN(S(C)(=O)=O)C4)ccc2C)cn1 [Compound 333],10 to 100
4,Cc1ccc(Nc2cccc3c2CCN(S(C)(=O)=O)C3)cc1-c1ccc(-c2ccco2)cc1 [Compound 121],100 to 1000
5,Cc1ccc(Nc2cccc3c2CCN(S(C)(=O)=O)C3)cc1-c1ccc(-c2ccccc2)cc1 [Compound 109],100 to 1000
6,Cc1ccc(Nc2cccc3c2CCN(S(C)(=O)=O)C3)cc1Oc1ccccc1 [Compound 123],100 to 1000
7,Cc1ccc(Nc2cccc3c2CCN(S(C)(=O)=O)C3)cc1C(=O)N(C)c1ccccc1 [Compound 193],100 to 1000
8,Cc1ccc(Nc2cccc3c2CCN(S(C)(=O)=O)C3)cc1-c1ccc(OC(F)(F)F)cc1 [Compound 137],10 to 100
9,COc1cccc(-c2cc(Nc3cccc4c3CCN(S(C)(=O)=O)C4)ccc2C)n1 [Compound 165],100 to 1000
10,CS(=O)(=O)N1CCc2c(cccc2Nc2ccc(CO)c(-c3ccc(C#N)cc3)c2)C1 [Compound 178],100 to 1000
11,Cc1cnc(-c2cc(Nc3cccc4c3CCN(S(C)(=O)=O)C4)ccc2C)nc1 [Compound 216],10 to 100
12,Cc1cc(C#N)ccc1-c1cc(Nc2cccc3c2CCN(S(C)(=O)=O)C3)ccc1C [Compound 163],10 to 100
13,Cc1ccc(Nc2cccc3c2CCN(S(C)(=O)=O)C3)cc1-c1ccc(C(C)(C)C)cc1 [Compound 113],1000 to 10000
14,O=C(O)C(F)(F)CN1CCc2c(cccc2Nc2ccc(Cl)c(-c3nc(-c4ccccc4)c[nH]3)c2)C1 [Compound 64],1 to 10
15,Cc1ccc(Nc2cccc3c2CCN(S(C)(=O)=O)C3)cc1-c1cnc(N(C)C)cn1 [Compound 253],1 to 10
16,C[C@H](C(=O)O)N1CCc2c(cccc2Nc2ccc(Cl)c(-c3nc(-c4ccccc4)c[nH]3)c2)C1 [Compound 78],1 to 10
17,Cc1cc2c(cn1)cc(-c1cc(Nc3cccc4c3CCN(S(C)(=O)=O)C4)ccc1C)c(=O)n2C [Compound 116],100 to 1000
18,C[C@H](O)C(=O)N1CCc2c(cccc2Nc2ccc(Cl)c(-c3ncc(-c4ccccc4)[nH]3)c2)C1 [Compound 20],1 to 10
19,OC[C@@H](O)CN1CCc2c(cccc2Nc2ccc(Cl)c(-c3ncc(-c4ccccc4)[nH]3)c2)C1 [Compound 93],1 to 10

row,SMILES,IC50 [nM]
1,COc1ccc(-c2cc(Nc3cccc4c3CCN(C3CCS(=O)(=O)CC3)C4)ccc2C)nn1 [Compound 306],1 to 10
2,Cc1ccc(Nc2cccc3c2CCN(CC(C)(C)F)C3)cc1-c1ccc(F)cn1 [Compound 182],1 to 10
3,Cc1ccc(Nc2cccc3c2CCN(S(C)(=O)=O)C3)cc1-c1ccc(CNCCO)cc1 [Compound 158],100 to 1000
4,Cc1c(Nc2cccc3c2CCN(S(C)(=O)=O)C3)cccc1-c1ccc(C#N)cc1 [Compound 90],100 to 1000
5,O=C(O)CC(=O)N1CCc2c(cccc2Nc2ccc(Cl)c(-c3nc(-c4ccccc4)c[nH]3)c2)C1 [Compound 44],1 to 10
6,Cc1ccc(Nc2cccc3c2CCN(CCS(C)(=O)=O)C3)cc1-c1ccc(C(F)(F)F)cn1 [Compound 259],1 to 10
7,Cc1ccc(Nc2cccc3c2CCN(S(C)(=O)=O)C3)cc1-c1cc2ccccc2n1C [Compound 152],10 to 100
8,Cc1ccc(Nc2cccc3c2CCN(CC(C)(C)F)C3)cc1C(=O)Nc1ccccc1 [Compound 221],1 to 10
9,CCOc1ccc(-c2cc(Nc3cccc4c3CCN(C3CS(=O)(=O)C3)C4)ccc2C)nn1 [Compound 295],1 to 10
10,Cc1ccc(Nc2cccc3c2CCN(S(C)(=O)=O)C3)cc1-c1ccc(C(=O)N(C)C)cc1 [Compound 138],100 to 1000
11,Cc1c(CN(C)C)cc(Nc2cccc3c2CCN(S(C)(=O)=O)C3)cc1-c1ccc(F)cn1 [Compound 197],1000 to 10000
12,Cc1cnc(-c2cc(Nc3cccc4c3CCN(C3CCS(=O)(=O)C3)C4)ccc2C)nc1 (stereo not shown) [Compound 267],10 to 100
13,Cc1ccc(Nc2cccc3c2CCN(S(C)(=O)=O)C3)cc1-c1ccc(C(=O)O)cc1 [Compound 144],1000 to 10000
14,Cc1ccc(Nc2cccc3c2CCN(S(C)(=O)=O)C3)cc1-c1cc(F)ccn1 [Compound 217],1 to 10
15,CS(=O)(=O)N1CCc2c(cccc2Nc2cccc(-c3ccc(C#N)cc3)c2)C1 [Compound 132],10 to 100
16,Cc1ccc(-c2nc(Nc3cccc4c3CCN(C3CS(=O)(=O)C3)C4)ccc2C)nc1 [Compound 285],10 to 100
17,Cc1ccc(-c2cc(Nc3ncnc4c3CCN(C3CS(=O)(=O)C3)C4)ccc2C)nc1 [Compound 288],10 to 100
18,CC(C)N1CCc2c(cccc2Nc2ccc(Cl)c(-c3ncc(-c4ccccc4)[nH]3)c2)C1 [Compound 46],1 to 10
19,CC(C)(C(=O)O)C(=O)N1CCc2c(cccc2Nc2ccc(Cl)c(-c3ncc(-c4ccccc4)[nH]3)c2)C1 [Compound 67],1 to 10

# Second part, the molecule after the results:
row,IC50 [nM],SMILES
1,0.001 to 1,Cc1ccc(Nc2cccc3c2CCN(S(C)(=O)=O)C3)cc1C(=O)Nc1ccc(C#N)cc1 [Compound 160]
2,0.001 to 1,Cc1ccc(-c2cc(Nc3cccc4c3CCN(CCC(F)(F)F)C4)ccc2C)nc1 [Compound 251]
3,0.001 to 1,Cc1ccc(Nc2cccc3c2CCN(S(C)(=O)=O)C3)cc1C(=O)Nc1ccc(C(F)(F)F)cc1 [Compound 184]
4,1 to 10,Cc1ccc(Nc2cccc3c2CCN(C2CS(=O)(=O)C2)C3)cc1-c1ncccc1F [Compound 275]
5,0.001 to 1,Cc1ccc(Nc2cccc3c2CCN(CC(C)(C)F)C3)cc1-c1ccc(C#N)cn1 [Compound 198]
6,0.001 to 1,Cc1ccc(Nc2cccc3c2CCN(C2CCS(=O)(=O)CC2)C3)cc1-c1ccc(F)cn1 [Compound 234]
7,1 to 10,CC(C(=O)O)N1CCc2c(cccc2Nc2ccc(Cl)c(-c3ncc(-c4ccccc4)[nH]3)c2)C1 (stereo not shown) [Compound 58]
8,0.001 to 1,Cc1ccc(-c2cc(Nc3cccc4c3CCN(CC(C)(C)F)C4)ccc2C)nc1 [Compound 200]
9,1 to 10,CCOc1ccc(-c2cc(Nc3cccc4c3CCN(C3CCS(=O)(=O)C3)C4)ccc2C)nn1 (stereo not shown) [Compound 296]
10,0.001 to 1,OC[C@H](O)CN1CCc2c(cccc2Nc2ccc(Cl)c(-c3ncc(-c4ccccc4)[nH]3)c2)C1 [Compound 18]
11,1 to 10,CCOc1cnc(-c2cc(Nc3cccc4c3CCN(C3CCS(=O)(=O)CC3)C4)ccc2C)cn1 [Compound 335]
12,0.001 to 1,OCC1(N2CCc3c(cccc3Nc3ccc(Cl)c(-c4ncc(-c5ccccc5)[nH]4)c3)C2)CC1 [Compound 84]
13,1 to 10,Cc1cccc(-c2cc(Nc3cccc4c3CCN(S(C)(=O)=O)C4)ccc2C)n1 [Compound 191]
14,1 to 10,OCC(CO)N1CCc2c(cccc2Nc2ccc(Cl)c(-c3ncc(-c4ccccc4)[nH]3)c2)C1 [Compound 34]
15,1 to 10,Cc1ccc(-c2cc(Nc3cccc4c3CCN(CC(=O)N(C)C)C4)ccc2C)nc1 [Compound 233]
16,0.001 to 1,CC(=O)N1CCc2c(cccc2Nc2ccc(Cl)c(-c3ncc(-c4ccccc4)[nH]3)c2)C1 [Compound 56]
17,1 to 10,Cc1ncc(Nc2cccc3c2CCN(S(C)(=O)=O)C3)cc1C(=O)Nc1ccccc1 [Compound 225]
18,0.001 to 1,CS(=O)(=O)N1CCc2c(cccc2Nc2ccc(Cl)c(-c3ncc(-c4ccccc4)[nH]3)c2)C1 [Compound 4]
19,1 to 10,Cc1ccc(Nc2cccc3c2CCN(CC2(C)CC2)C3)cc1-c1nc2ccccc2[nH]1 [Compound 97]
20,0.001 to 1,Cc1ccc(-c2cc(Nc3cccc4c3CCN(C3CCS(=O)(=O)CC3)C4)ccc2C)nc1 [Compound 235]
21,0.001 to 1,Cc1ccc(Nc2cccc3c2CCN(S(C)(=O)=O)C3)cc1-c1ccc(N(C)C)cn1 [Compound 291]
22,0.001 to 1,Cc1ccc(Nc2cccc3c2CCN(C2CCS(=O)(=O)C2)C3)cc1-c1ccccn1 (stereo not shown) [Compound 265]
23,0.001 to 1,OCC(F)(F)CN1CCc2c(cccc2Nc2ccc(Cl)c(-c3nc(-c4ccccc4)c[nH]3)c2)C1 [Compound 71]
24,0.001 to 1,COc1ccc2[nH]c(-c3cc(Nc4cccc5c4CCN(S(C)(=O)=O)C5)ccc3C)nc2c1 [Compound 15]
25,0.001 to 1,OC1CCC(N2CCc3c(cccc3Nc3ccc(Cl)c(-c4ncc(-c5ccccc5)[nH]4)c3)C2)CC1 (stereo not shown) [Compound 37]
26,1 to 10,COc1ccc(-c2cc(Nc3cccc4c3CCN(C3CS(=O)(=O)C3)C4)ccc2C)nn1 [Compound 276]
27,0.001 to 1,COc1cccc(-c2cnc(-c3cc(Nc4cccc5c4CCN(S(C)(=O)=O)C5)ccc3C)[nH]2)n1 [Compound 104]
28,0.001 to 1,CCOc1ccc(-c2cc(Nc3cccc4c3CCN(S(C)(=O)=O)C4)ccc2C)nn1 [Compound 271]

# Same assay, conditions: enzymatic and cellular assays for the inhibition of hedgehog signaling pathways; read-out: IC50 Ranges
row,IC50 [nM],SMILES
1,0.001 to 1,Cc1ccc(Nc2cccc3c2CCN([C@@H]2CCS(=O)(=O)C2)C3)cc1-c1ncccc1F [Compound 341]
